Source: PubChem BioAssay AID1963978 (Molecular Pharmacology Branch, DTP, NCI, 2024)

Test system: 616215-338-R-J1-PDC spheroids with HUVEC/MSC, viability
Assay: Anticancer human tumor 616215-338-R-J1-PDC patient-derived colon adenocarcinoma cell line growth inhibition [PI3K]
Conditions: for IC50: curve of first compound; for viability, T/C: stronger effect = lower value
Summary of the method: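 We assembled tumor spheroids that included a stromal compartment of HUVEC and MSCs, then exposed them to targeted agents alone and together with PI3K pathway inhibitors. Concentration series descended by half-log from clinically achievable Cmax levels. Viability served as the endpoint.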

[1] = second compound 0.0316 µM, first compound 0.0316 µM
[2] = second compound 0.0316 µM, first compound 0.1 µM
[3] = second compound 0.0316 µM, first compound 0.316 µM
[4] = second compound 0.0316 µM, first compound 1 µM
[5] = second compound 0.0316 µM, first compound 3.16 µM
[6] = second compound 0.0316 µM, first compound 10 µM
[7] = second compound 0.1 µM, first compound 0.0316 µM
[8] = second compound 0.1 µM, first compound 0.1 µM
[9] = second compound 0.1 µM, first compound 0.316 µM
[10] = second compound 0.1 µM, first compound 1 µM
[11] = second compound 0.1 µM, first compound 3.16 µM
[12] = second compound 0.1 µM, first compound 10 µM
[13] = second compound 0.316 µM, first compound 0.0316 µM
[14] = second compound 0.316 µM, first compound 0.1 µM
[15] = second compound 0.316 µM, first compound 0.316 µM
[16] = second compound 0.316 µM, first compound 1 µM
[17] = second compound 0.316 µM, first compound 3.16 µM
[18] = second compound 0.316 µM, first compound 10 µM
[19] = second compound 1 µM, first compound 0.0316 µM
[20] = second compound 1 µM, first compound 0.1 µM
[21] = second compound 1 µM, first compound 0.316 µM
[22] = second compound 1 µM, first compound 1 µM
[23] = second compound 1 µM, first compound 3.16 µM
[24] = second compound 1 µM, first compound 10 µM
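Note: spheroids exposed to agents for seven days before the viability read.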

C=CC(=O)N1CCN(c2nc(=O)n(-c3c(C)ccnc3C(C)C)c3nc(-c4c(O)cccc4F)c(F)cc23)C(C)C1 (centres undefined) + CC(Nc1ncnc2nc[nH]c12)c1cc2cccc(Cl)c2c(=O)n1-c1ccccc1
IC50 (second compound 0.0316 µM): > 10 µM
IC50 (second compound 0.1 µM): > 10 µM
IC50 (second compound 0.316 µM): > 10 µM
IC50 (second compound 1 µM): > 10 µM
IC50 (second compound 3.16 µM): > 10 µM
IC50 (second compound 10 µM): > 10 µM
viability, T/C [1]: 89%
viability, T/C [2]: 92.5%
viability, T/C [3]: 109%
viability, T/C [4]: 104%
viability, T/C [5]: 93.3%
viability, T/C [6]: 95.8%
viability, T/C [7]: 100%
viability, T/C [8]: 99.3%
viability, T/C [9]: 98%
viability, T/C [10]: 93.4%
viability, T/C [11]: 96.8%
viability, T/C [12]: 89.1%
viability, T/C [13]: 99.7%
viability, T/C [14]: 107%
viability, T/C [15]: 92.8%
viability, T/C [16]: 96.5%
viability, T/C [17]: 91.4%
viability, T/C [18]: 74.7%
viability, T/C [19]: 101%
viability, T/C [20]: 99.5%
viability, T/C [21]: 106%
viability, T/C [22]: 96.9%
viability, T/C [23]: 94%
viability, T/C [24]: 88.5%
viability, T/C (second compound 3.16 µM, first compound 0.0316 µM): 101%
viability, T/C (second compound 3.16 µM, first compound 0.1 µM): 104%
viability, T/C (second compound 3.16 µM, first compound 0.316 µM): 98%
viability, T/C (second compound 3.16 µM, first compound 1 µM): 105%
viability, T/C (second compound 3.16 µM, first compound 3.16 µM): 85.4%
viability, T/C (second compound 3.16 µM, first compound 10 µM): 78.8%
viability, T/C (second compound 10 µM, first compound 0.0316 µM): 106%
viability, T/C (second compound 10 µM, first compound 0.1 µM): 107%
viability, T/C (second compound 10 µM, first compound 0.316 µM): 108%
viability, T/C (second compound 10 µM, first compound 1 µM): 95.5%
viability, T/C (second compound 10 µM, first compound 3.16 µM): 99%
viability, T/C (second compound 10 µM, first compound 10 µM): 82.6%

C#Cc1c(F)ccc2cc(O)cc(-c3ncc4c(N5CC6CCC(C5)N6)nc(OCC56CCCN5CC(F)C6)nc4c3F)c12 (centres undefined) + COc1c(OCCCN2CCOCC2)ccc2c3n(c(=NC(=O)c4cnc(N)nc4)nc12)CCN3
IC50 (second compound 0.00316 µM): > 10 µM
IC50 (second compound 0.01 µM): 7.8 µM
IC50 (second compound 0.0316 µM): 8.36 µM
IC50 (second compound 0.1 µM): 5.99 µM
IC50 (second compound 0.316 µM): < 0.0316 µM
IC50 (second compound 1 µM): < 0.0316 µM
viability, T/C (second compound 0.00316 µM, first compound 0.0316 µM): 95.5%
viability, T/C (second compound 0.00316 µM, first compound 0.1 µM): 89.2%
viability, T/C (second compound 0.00316 µM, first compound 0.316 µM): 90.4%
viability, T/C (second compound 0.00316 µM, first compound 1 µM): 91.4%
viability, T/C (second compound 0.00316 µM, first compound 3.16 µM): 94.9%
viability, T/C (second compound 0.00316 µM, first compound 10 µM): 72%
viability, T/C (second compound 0.01 µM, first compound 0.0316 µM): 95.5%
viability, T/C (second compound 0.01 µM, first compound 0.1 µM): 89.7%
viability, T/C (second compound 0.01 µM, first compound 0.316 µM): 91.8%
viability, T/C (second compound 0.01 µM, first compound 1 µM): 102%
viability, T/C (second compound 0.01 µM, first compound 3.16 µM): 73.6%
viability, T/C (second compound 0.01 µM, first compound 10 µM): 43.5%
viability, T/C [1]: 101%
viability, T/C [2]: 98.1%
viability, T/C [3]: 95.4%
viability, T/C [4]: 106%
viability, T/C [5]: 81.5%
viability, T/C [6]: 44.1%
viability, T/C [7]: 94%
viability, T/C [8]: 95.9%
viability, T/C [9]: 90.2%
viability, T/C [10]: 93.7%
viability, T/C [11]: 74.7%
viability, T/C [12]: 30.3%
viability, T/C [13]: 38.2%
viability, T/C [14]: 42.4%
viability, T/C [15]: 38.2%
viability, T/C [16]: 30.9%
viability, T/C [17]: 32.4%
viability, T/C [18]: 17.9%
viability, T/C [19]: 19.8%
viability, T/C [20]: 27.1%
viability, T/C [21]: 17.3%
viability, T/C [22]: 10.8%
viability, T/C [23]: 6.21%
viability, T/C [24]: 0.88%
